Key:
stem cells = assay: Cell adhesion test with ECM; type: cell-based, human
Description: With respect to CELLstart and various concentrations (2-7 μg/mL) of ECM (Laminin 521), stem cells were cultured using the same protocol as in the above Examples to conduct a cell adhesion test.

FOXA2 and/or LMX1A = assay: Immunocytochemistry of FOXA2 and/or LMX1A expression during differentiation into dopaminergic neural precursor cells; type: cell-based, human
Description: Cells were fixed for 10 min in a 4% paraformaldehyde solution.
In order to smoothly penetrate into the cytoplasm, […] incubated with 0.1% Trition X-100 (in PBS) for 15 min and then with 2% bovine serum albumin (BSA, in PBS) for 1 hour at room temperature.
Subsequently, the primary antibodies (see Table 1, below) were allowed to bind to the cells at 4° C. Secondary antibodies suitable for the respective primary antibody species (see Table 1, below) were used to confirm the primary antibody-bound cells.
Finally, cell nuclei were imaged. In this regard, the cells were incubated with 4′, […] (DAPI) in PBS for 10 min to stain the nuclei which were then imaged under a fluorescence microscope. Important markers were identified and analyzed.
The cells were differentiated into dopaminergic neural precursor cells in the same manner as the method of the present invention, with the exception of treating the cells with SAG and CHIR99021 at respective concentrations of 0.5 μM and 1.0 μM, or 1.0 μM and 1.5 μM, instead of 1.0 μM and 2.0 μM. With the expression of FOXA2 and/or LMX1A, this method was compared to the method of the present disclosure.

For “Laminin-521: ECM (Laminin 521) used to coat culture dishes”, which cell adhesion (stem cells; 2 μg/mL and 3 μg/mL) is on record?
The cell adhesion was “too poor adhesion to conduct the test”.

And the cell adhesion (stem cells; 4 μg/mL and 5 μg/mL)?
The cell adhesion was “relatively high adhesion”.

What about the “cell state on ECM” value (stem cells; 6 μg/mL and 7 μg/mL) of the same compound?
Its value is “spontaneous differentiation at high frequency”.

For `CNC1CCC(N(Cc2cccc(-c3ccncc3)c2)C(=O)c2sc3ccccc3c2Cl)CC1.Cl.Cl.O.O` (centres unmarked) [SAG], which “expression of FOXA2” value (FOXA2 and/or LMX1A; marker for dopaminergic neural precursor cells, as explained in the Example section) is on record?
The value was “upregulate the expression of FOXA2”.

Which “expression of LMX1A and En-1” value (FOXA2 and/or LMX1A; markers for dopaminergic neural precursor cells, as illustrated in the Example section) does the source give for `Cc1c[nH]c(-c2cnc(NCCNc3ccc(C#N)cn3)nc2-c2ccc(Cl)cc2Cl)n1` [CHIR99021, 6-[[2-[[4-(2,4-dichlorophenyl)-5-(5-methyl-1H-imidazol-2-yl)-2-pyrimidinyl]amino]ethyl]amino]-3-pyridinecarbonitrile] here?
The value was “upregulate the expression of LMX1A and En-1”.

Reference: patent publication US11655450B2, “Method for inducing differentiation of stem cell into dopaminergic neural precursor cell” (S-BIOMEDICS, priority 2019, dated 2023)
